Measurements reported in patent publication US9416154B2, “5′-substituted nucleoside derivatives and methods of use thereof for the treatment of viral diseases” (priority 2011, dated 2016).
Like-named read-outs stand apart in the source and are kept apart here.

Key:
[1] = Cytotoxicity (MTS assay or GAPDH RNA readout); format: cell-based; conditions: human, replicon-containing Huh 7 cells, 3-day incubation, MTS or GAPDH RNA readout; read-out: 1b CC50
Experimental: (§1) The effect of the nucleoside derivatives on the proliferation and metabolism of Huh 7 hepatoma cells containing the subgenomic HCV replicon was measured using the MTS assay. Briefly, cells were seeded and dosed with compounds exactly as described in Example 13 above, for replicon EC50 determination. After a 3-day compound incubation period, the MTS assay was performed in accordance with the manufacturer's protocol for the CellTiter 96 Aqueous One Solution Cell Proliferation Assay (Promega, Catalog #G358). Alternatively, after a 3-day compound incubation, the amount of glyceraldehyde-3-phosphate dehydrogenase (GAPDH) RNA in replicon-containing Huh 7 cells was determined using qRT-PCR. CC50 values were derived from 10 serial 2-fold dilutions of the inhibitor in duplicate that yielded 50% inhibition of the MTS or GAPDH RNA readout by comparison with cells treated with vehicle control.

HCV replicon (1b) = assay: Cell-based HCV replicon assay
Experimental: To measure cell-based anti-HCV activity of selected compounds of the present invention, replicon cells were seeded at 5000 cells/well in 96-well collagen I-coated Nunc plates in the presence of the test compound. Various concentrations of test compound, typically in 10 serial 2-fold dilutions, were added to the assay mixture, with the starting concentration ranging from 250 μM to 1 μM. The final concentration of dimethylsulfoxide was 0.5%, fetal bovine serum was 5%, in the assay media. Cells were harvested on day 3 by the addition of 1× cell lysis buffer (Ambion cat #8721). The replicon RNA level was measured using real time PCR (Taqman assay). The amplicon was located in 5B. The PCR primers were: 5B.2F, ATGGACAGGCGCCCTGA (SEQ ID. NO. 1); 5B.2R, […] (SEQ ID. NO. 2); the probe sequence was FAM-labeled CACGCCATGCGCTGCGG (SEQ ID. NO. 3). GAPDH RNA was used as endogenous control and was amplified in the same reaction as NS5B (multiplex PCR) using primers and VIC-labeled probe recommended by the manufacturer (PE Applied Biosystem). The real-time RT-PCR reactions were run on ABI PRISM 7900HT Sequence Detection System using the following program: 48° C. for 30 minutes, 95° C. for 10 minutes, 40 cycles of 95° C. for 15 sec, 60° C. for 1 minute. The ΔCT values (CT5B-CTGAPDH) were plotted against the concentration of test compound and fitted to the sigmoid dose-response model using XLfit4 (MDL). EC50 was defined as the concentration of inhibitor necessary to achieve ΔCT=1 over the projected baseline; EC90 the concentration necessary to achieve ΔCT=3.2 over the baseline. Alternatively, to quantitate the absolute amount of replicon RNA, a standard curve was established by including serially diluted T7 transcripts of replicon RNA in the Taqman assay. All Taqman reagents were from PE Applied Biosystems. Such an assay procedure was described in detail in e.g. Malcolm et al., Antimicrobial Agents and Chemotherapy 50: 1013-1020 (2006).

[2] = test system: Huh 7 hepatoma cells containing the subgenomic HCV replicon; assay: Cytotoxicity (MTS assay or GAPDH RNA readout); format: cell-based
Experimental: as §1

[3] = Hepatitis C virus, 72 h, read-out: 1b EC50, replicon cells, 3-day incubation, replicon RNA by real time PCR (Taqman)
[4] = replicon cells, 3-day incubation, replicon RNA by real time PCR (Taqman), read-out: 1b EC50
[5] = Hepatitis C virus, 72 h, replicon cells, 3-day incubation, replicon RNA by real time PCR (Taqman), read-out: 1b EC50
[6] = replicon-containing Huh 7 cells, 3-day incubation, MTS or GAPDH RNA readout, read-out: 1b CC50
[7] = read-out: 1b EC50, replicon cells, 3-day incubation, replicon RNA by real time PCR (Taqman)

| Compound | CC50 at 3 day [1] [µM] | EC50 (HCV replicon (1b); [3]) [µM] | further results |
| --- | --- | --- | --- |
| COC(=O)[C@H](C)NP(=O)(Oc1ccccc1)O[C@H](C)[C@H]1O[C@@H](n2cc(F)c3c(N)ncnc32)[C@](C)(O)[C@@H]1O (some centres unmarked) [Compound 11] | > 100 | 37 |  |
| C[C@H](O)[C@H]1O[C@@H](n2cc(F)c3c(N)ncnc32)[C@](C)(O)[C@@H]1O [Compound 9] |  |  | CC50 [2]: > 100 µM; EC50 (HCV replicon (1b); [4]): > 100 µM |
| COC(=O)[C@H](C)NP(=O)(Oc1ccccc1)O[C@@H](C)[C@H]1O[C@@H](n2ccc3c(N)ncnc32)[C@](C)(O)[C@@H]1O (some centres unmarked) [Compound 35] | > 100 | > 100 |  |
| CC(O)[C@H]1O[C@@H](n2ccc3c(N)ncnc32)[C@](C)(F)[C@@H]1O (some centres unmarked) [Compound 14] | > 100 |  | EC50 (HCV replicon (1b); [5]): > 100 µM |
| C[C@@H](O)C1O[C@@H](n2ccc3c(N)ncnc32)[C@](C)(O)[C@@H]1O (some centres unmarked) [Compound 27] |  |  | CC50 [2, 6]: > 100 µM; EC50 (HCV replicon (1b); [4]): > 100 µM |
| C[C@H](O)C1O[C@@H](n2cc(F)c3c(N)ncnc32)[C@](C)(F)[C@@H]1O (some centres unmarked) [Compound 25] |  |  | CC50 [2, 6]: > 100 µM; EC50 (HCV replicon (1b); [4]): > 100 µM |
| COC(=O)[C@H](C)NP(=O)(Oc1ccccc1)O[C@H](C)[C@H]1O[C@@H](n2ccc3c(N)ncnc32)[C@](C)(O)[C@@H]1O (some centres unmarked) [Compound 34] | > 100 | > 100 |  |
| CC(C)OC(=O)[C@H](C)NP(=O)(Oc1ccccc1Cl)OC(C)[C@H]1O[C@@H](n2ccc3c(N)ncnc32)[C@](C)(F)[C@@H]1O (some centres unmarked) [Compound 23] | > 100 | > 100 |  |
| CC(C)OC(=O)[C@H](C)NP(=O)(Oc1cccc2ccccc12)OC(C)[C@H]1O[C@@H](n2ccc3c(N)ncnc32)[C@](C)(F)[C@@H]1O (some centres unmarked) [Compound 19] | > 20 | > 20 |  |
| CC(C)(O)[C@H]1O[C@@H](n2ccc3c(N)ncnc32)[C@](C)(O)[C@@H]1O [Compound 31] |  |  | CC50 [2]: > 100 µM; EC50 (HCV replicon (1b); [4]): > 100 µM |
| CC[C@@H](O)[C@H]1O[C@@H](n2cc(F)c3c(N)ncnc32)[C@](C)(O)[C@@H]1O [Compound 5] | 24 |  | EC50 (HCV replicon (1b); [5]): 23 µM |
| CC(O)C1O[C@@H](n2cc(F)c3c(N)ncnc32)[C@](C)(F)[C@@H]1O (some centres unmarked) [Compound 24] |  |  | CC50 [2, 6]: > 100 µM; EC50 (HCV replicon (1b); [4]): > 100 µM |
| CC(OP(=O)(N[C@@H](C)C(=O)OCC(C)(C)C)Oc1ccccc1)[C@H]1O[C@@H](n2ccc3c(N)ncnc32)[C@](C)(O)[C@@H]1O (some centres unmarked) [Compound 41] | > 100 | 18 |  |
| CCOC(=O)[C@H](C)NP(=O)(Oc1ccc(Cl)cc1)OC(C)[C@H]1O[C@@H](n2ccc3c(N)ncnc32)[C@](C)(F)[C@@H]1O (some centres unmarked) [Compound 20] | > 100 | > 100 |  |
| CCCCOC(=O)[C@H](C)NP(=O)(Oc1cccc2ccccc12)O[C@H](C)[C@H]1O[C@@H](n2cc(F)c3c(N)ncnc32)[C@](C)(O)[C@@H]1O (some centres unmarked) [Compound 4] | 84 | > 100 |  |
| CCOC(=O)[C@H](C)NP(=O)(Oc1ccccc1Cl)OC(C)[C@H]1O[C@@H](n2ccc3c(N)ncnc32)[C@](C)(F)[C@@H]1O (some centres unmarked) [Compound 22] | > 100 | > 100 |  |
| CC[C@@H](OP(=O)(N[C@@H](C)C(=O)OC)Oc1ccccc1)[C@H]1O[C@@H](n2cc(F)c3c(N)ncnc32)[C@](C)(O)[C@@H]1O (some centres unmarked) [Compound 10] | 20 | 15 |  |
| CCCCOC(=O)[C@H](C)NP(=O)(Oc1cccc2ccccc12)OC(C)[C@H]1O[C@@H](n2ccc3c(N)ncnc32)[C@](C)(O)[C@@H]1O (some centres unmarked) [Compound 45] |  |  | CC50 [2, 6]: > 100 µM; EC50 (HCV replicon (1b); [7]): 22 µM |
| CCOC(=O)[C@H](C)NP(=O)(Oc1cccc2ccccc12)OC(C)[C@H]1O[C@@H](n2ccc3c(N)ncnc32)[C@](C)(F)[C@@H]1O (some centres unmarked) [Compound 18] | > 100 | > 100 |  |
| CCOC(=O)[C@H](C)NP(=O)(Oc1ccccc1)O[C@@H](C)[C@H]1O[C@@H](n2ccc3c(N)ncnc32)[C@](C)(O)[C@@H]1O (some centres unmarked) [Compound 39] | > 100 | > 100 |  |

| Compound | CC50 at 3 day [1] [µM] | EC50 (HCV replicon (1b); [3]) [µM] | further results |
| --- | --- | --- | --- |
| CC(C)OC(=O)[C@H](C)NP(=O)(Oc1cccc2ccccc12)OC(C)(C)[C@H]1O[C@@H](n2ccc3c(N)ncnc32)[C@](C)(F)[C@@H]1O (some centres unmarked) [Compound 32] | > 20 | > 20 |  |
| CCCCOC(=O)[C@H](C)NP(=O)(Oc1cccc2ccccc12)O[C@H](C)[C@H]1O[C@@H](n2ccc3c(N)ncnc32)[C@](C)(O)[C@@H]1O (some centres unmarked) [Compound 2] |  |  | CC50 [2, 6]: 44 µM; EC50 (HCV replicon (1b); [4]): 33 µM |
| COC(=O)[C@H](C)NP(=O)(Oc1cccc2ccccc12)OC(C)[C@H]1O[C@@H](n2ccc3c(N)ncnc32)[C@](C)(O)[C@@H]1O (some centres unmarked) [Compound 42] | > 100 | 4.8 |  |
| CC(O)[C@H]1O[C@@H](n2cc(-c3cc[nH]n3)c3c(N)ncnc32)[C@](C)(F)[C@@H]1O (some centres unmarked) [Compound 33] | > 100 |  | EC50 (HCV replicon (1b); [5]): > 100 µM |
| CCCCOC(=O)[C@H](C)NP(=O)(Oc1cccc2ccccc12)OC(C)[C@H]1O[C@@H](n2ccc3c(N)ncnc32)[C@](C)(O)[C@@H]1O (some centres unmarked) [Compound 44] | 51 |  | EC50 (HCV replicon (1b); [7]): 2 µM |
| C[C@@H](O)[C@H]1O[C@@H](n2cc(F)c3c(N)ncnc32)[C@](C)(O)[C@@H]1O [Compound 3] | > 100 |  | EC50 (HCV replicon (1b); [5]): > 100 µM |
| C[C@@H](O)C1O[C@@H](n2cc(F)c3c(N)ncnc32)[C@](C)(F)[C@@H]1O (some centres unmarked) [Compound 26] |  |  | CC50 [2]: > 100 µM; EC50 (HCV replicon (1b); [4]): > 100 µM |
| CC(C)(O)[C@H]1O[C@@H](n2ccc3c(N)ncnc32)[C@](C)(F)[C@@H]1O [Compound 30] |  |  | CC50 [2]: > 100 µM; EC50 (HCV replicon (1b); [4]): > 100 µM |
| COC(=O)[C@H](C)NP(=O)(Oc1ccccc1)OC(C)[C@H]1O[C@@H](n2ccc3c(N)ncnc32)[C@](C)(O)[C@@H]1O (some centres unmarked) [Compound 40] | > 100 | 21 |  |
| C[C@H](O)C1O[C@@H](n2ccc3c(N)ncnc32)[C@](C)(O)[C@@H]1O (some centres unmarked) [Compound 28] |  |  | CC50 [2]: > 100 µM; EC50 (HCV replicon (1b); [4]): > 100 µM |
| CC[C@@H](O)[C@H]1O[C@@H](n2ccc3c(N)ncnc32)[C@](C)(O)[C@@H]1O [Compound 7] | > 100 |  | EC50 (HCV replicon (1b); [5]): > 100 µM |
| CC(C)OC(=O)[C@H](C)NP(=O)(Oc1ccccc1)OC(C)[C@H]1O[C@@H](n2ccc3c(N)ncnc32)[C@](C)(F)[C@@H]1O (some centres unmarked) [Compound 17] | > 100 | > 100 |  |
| CC(C)OC(=O)[C@H](C)NP(=O)(Oc1ccccc1)OC(C)[C@H]1O[C@@H](n2ccc3c(N)ncnc32)[C@](C)(O)[C@@H]1O (some centres unmarked) [Compound 43] | 98 | 14 |  |
| C[C@@H](O)[C@H]1O[C@@H](n2ccc3c(N)ncnc32)[C@](C)(O)[C@@H]1O [Compound 1] |  |  | CC50 [2]: 78 µM; EC50 (HCV replicon (1b); [4]): 61 µM |
| CCCCOC(=O)[C@H](C)NP(=O)(Oc1cccc2ccccc12)O[C@H](CC)[C@H]1O[C@@H](n2cc(F)c3c(N)ncnc32)[C@](C)(O)[C@@H]1O (some centres unmarked) [Compound 6] | 5.7 | 9.3 |  |
| CCCCOC(=O)[C@H](C)NP(=O)(Oc1cccc2ccccc12)O[C@H](CC)[C@H]1O[C@@H](n2ccc3c(N)ncnc32)[C@](C)(O)[C@@H]1O (some centres unmarked) [Compound 8] | 30 | 13 |  |
| COC(=O)[C@H](C)NP(=O)(Oc1ccccc1)O[C@@H](C)[C@H]1O[C@@H](n2cc(F)c3c(N)ncnc32)[C@](C)(O)[C@@H]1O (some centres unmarked) [Compound 12] | > 100 | 39 |  |
| CC(O)[C@H]1O[C@@H](n2cc(I)c3c(N)ncnc32)[C@](C)(F)[C@@H]1O (some centres unmarked) [Compound 13] |  |  | CC50 [2]: 30 µM; EC50 (HCV replicon (1b); [4]): 58 µM |
| CCOC(=O)[C@H](C)NP(=O)(Oc1ccccc1)O[C@H](C)[C@H]1O[C@@H](n2ccc3c(N)ncnc32)[C@](C)(O)[C@@H]1O (some centres unmarked) [Compound 38] | > 100 | > 100 |  |
| CC(C)OC(=O)[C@H](C)NP(=O)(Oc1ccc(Cl)cc1)OC(C)[C@H]1O[C@@H](n2ccc3c(N)ncnc32)[C@](C)(F)[C@@H]1O (some centres unmarked) [Compound 21] | > 100 | > 100 |  |
